{
  "source": "paper PMC6588697",
  "about": "“Lugdunin amplifies innate immune responses in the skin in synergy with host- and microbiota-derived factors” (Nature Communications, 2019)",
  "type_in_all_cases": "cell-based, human",
  "key": {"PBMCs": {"tested_on": "PBMCs", "assay": "CXCL8 expression in PBMCs (qRT-PCR)", "conditions": "5 h, two technical replicates", "protocol": "(§1) Quantitative reverse transcription-polymerase chain reaction (qRT-PCR) was performed in 10 µL reaction volume with SYBR^TM Green PCR Master Mix (Thermo Fisher) according to the manufacturer’s instructions using a LightCycler 96 (Roche Life Science). The initial denaturation step was at 95 °C for 5 min, followed by 40 cycles with 10 s each for the denaturation step at 95 °C, the annealing at individual temperature, and the elongation at 72 °C. Primer sequences and respective annealing temperatures are listed in Supplementary Table 1.\nHuman PBMCs were isolated from the peripheral blood of healthy donors upon obtaining informed consent by Ficoll-Histopaque (Biochrom) gradient centrifugation. Cells were washed once in PBS and adjusted to a cell number of 1 × 10^6 mL^−1 in RPMI-1640 medium (Gibco/Life Technologies) containing 10% FBS (Biochrom/Merck Millipore). […]\n31 g+h+i: HNEpCs (b), HTEpCs (c) or PBMCs (d) were treated with increasing\n32 concentrations of lugdunin (grey bars) or 100 ng/mL Pam2Cys or Pam3Cys (white\n33 bars) as positive controls for 5 hours and subsequently expression of CXCL8 was\n34 analyzed and normalized to actin. Black bar: medium control. Shown is one\n35 representative experiment of three independent experiments with two technical\n36 replicates +/-s.e.m. Significant differences to control treatments were analyzed by\n37 ordinary one-way ANOVA followed by Dunnett’s multiple comparisons test (*P<0.05; […]"}, "HEK293-TLR2 cells": {"tested_on": "HEK293-TLR2 cells", "assay": "CXCL8 release by HEK-TLR2 cells (LEGENDplex)", "protocol": "Fig. 2 Induction of chemokine (C-X-C motif) ligand 8/macrophage inflammatory protein-2 (CXCL8/MIP-2) by lugdunin is TLR2/MyD88-dependent. a HEK-control or HEK-TLR2 cells were treated with 2 μM lugdunin for 5 h and subsequently the CXCL8 concentration in the supernatant was analyzed by LEGENDplex^TM (BioLegend). Shown is one representative experiment of three independent experiments with two technical replicates ± s.e.m. b HEK-control or HEK-TLR2 cells were treated with increasing concentrations of lugdunin for 5 h and subsequently expression of CXCL8 was analyzed and normalized to actin. Shown is one representative experiment of three independent experiments with two technical replicates ± s.e.m. c Schematic overview of the mouse experiments: 6–8-week-old female C5BL/6 WT, MyD88-knockout (ko), or 5xTLR-ko mice were epicutaneously treated with 1.5 µg lugdunin or phosphate-buffered saline (PBS) as a control. […] Significant differences to control treatments were analyzed by an unpaired two-tailed t test (*P < 0.05; **P < 0.01; ***P < 0.001). f Representative MIP-2-stained paraffin-embedded mouse skin sections. […]\nSupplementary Figure 2: CXCL8 controls and other cytokines in mouse skin 46 a: HEK-control cells or HEK -TLR2 cells were treated with 100 ng/mL Pam2Cys for 5 47 hours and subsequently the CXCL8 concentration in the supernatant was analyzed. […]"}, "HEK293 cells": {"tested_on": "HEK293 cells", "assay": "CXCL8 expression in HEK-control cells (qRT-PCR)", "conditions": "5 h, Fig 2b", "protocol": "Fig. 2 Induction of chemokine (C-X-C motif) ligand 8/macrophage inflammatory protein-2 (CXCL8/MIP-2) by lugdunin is TLR2/MyD88-dependent. a HEK-control or HEK-TLR2 cells were treated with 2 μM lugdunin for 5 h and subsequently the CXCL8 concentration in the supernatant was analyzed by LEGENDplex^TM (BioLegend). Shown is one representative experiment of three independent experiments with two technical replicates ± s.e.m. b HEK-control or HEK-TLR2 cells were treated with increasing concentrations of lugdunin for 5 h and subsequently expression of CXCL8 was analyzed and normalized to actin. Shown is one representative experiment of three independent experiments with two technical replicates ± s.e.m. c Schematic overview of the mouse experiments: 6–8-week-old female C5BL/6 WT, MyD88-knockout (ko), or 5xTLR-ko mice were epicutaneously treated with 1.5 µg lugdunin or phosphate-buffered saline (PBS) as a control. After 24 h, mice were euthanized, 4 mm skin punches were taken, and further cultured in vitro for 10 h followed by cytokine analysis of the culture supernatant by LEGENDplex^TM (BioLegend). d, e Shown are the mean concentrations of IL-1α (d) or MIP-2 (e) in the skin culture supernatant of two skin punches from four mice each ± s.e.m. Significant differences to control treatments were analyzed by an unpaired two-tailed t test (*P < 0.05; **P < 0.01; ***P < 0.001). f Representative MIP-2-stained paraffin-embedded mouse skin sections. Scale bar, 100 µM. Source data are provided as a Source Data file\nas §1, with “1. […]” for “1.”"}},
  "note": "Where “and” joins values, the source holds several entries; their conditions need not be identical. Equal values may be shown once.",
  "data": [
    {"substance": "Lugdunin", "values": [
      {"measurement": "CXCL8 fold induction", "setting": "PBMCs; lugdunin 0.5 µM, sheet Supp Fig 1h", "value": "0.8179 and 0.8236"},
      {"measurement": "CXCL8 fold induction", "setting": "PBMCs; lugdunin 1 µM", "value": "1.223 and 1.275"},
      {"measurement": "CXCL8 fold induction", "setting": "PBMCs; lugdunin 2 µM", "value": "2.085 and 1.84"},
      {"measurement": "CXCL8 fold induction", "setting": "PBMCs; lugdunin 3 µM", "value": "2.121 and 2.305"},
      {"measurement": "CXCL8 fold induction", "setting": "PBMCs; lugdunin 5 µM", "value": "3.021 and 3.221"},
      {"measurement": "CXCL8 fold induction", "setting": "PBMCs; lugdunin 10 µM", "value": "3.494 and 3.593"},
      {"measurement": "CXCL8 concentration in supernatant", "setting": "HEK293-TLR2 cells; HEK-TLR2 cells, lugdunin 2 µM, 5 h, two technical replicates, Fig 2a", "value": "564.521 and 585.121"},
      {"measurement": "CXCL8 induction level in HEK-TLR2 cells, times lower than Pam2Cys/Pam3Cys-mediated TLR2 activation", "setting": "HEK293-TLR2 cells; text to Fig 2a and Supp Fig 2", "value": 1000, "unit": "fold"},
      {"measurement": "CXCL8 expression normalized to actin", "setting": "HEK293 cells; lugdunin 0.5 µM, medium = 1, two technical replicates", "value": "1.3 and 1.16"},
      {"measurement": "CXCL8 expression normalized to actin", "setting": "HEK293 cells; lugdunin 1 µM, two technical replicates", "value": "1.15 and 1.02"},
      {"measurement": "CXCL8 expression normalized to actin", "setting": "HEK293 cells; lugdunin 2 µM, two technical replicates", "value": "2.66 and 2.46"},
      {"measurement": "CXCL8 expression normalized to actin", "setting": "HEK293 cells; lugdunin 3 µM, two technical replicates", "value": "1.96 and 1.97"},
      {"measurement": "CXCL8 expression normalized to actin", "setting": "HEK293 cells; lugdunin 5 µM, two technical replicates", "value": "2.91 and 2.73"},
      {"measurement": "CXCL8 expression normalized to actin", "setting": "HEK293 cells; lugdunin 10 µM, two technical replicates", "value": "1.84 and 1.91"}
    ]}
  ]
}
